Experimental findings from patent publication EP4782445A1, “CDK KINASE INHIBITOR AND USE THEREOF” (Abbisko Therapeutics Co., Ltd., priority 2023, dated 2025) are described below.

One assay concerns the target T1, CDK2/cyclin E1 (Homo sapiens, UniProt P24941).
T1 construct: purchased Carna
The experiment in a line: In vitro biochemical kinase activity assay for CDK2/cyclin E1 (HTRF). The settings on record: 1 µM ATP. As for the experimental part:
I. In Vitro Biochemical Kinase Activity Assay for CDK2/Cyclin E1
The inhibitory effects of the compounds of the present invention on CDK2/cyclin E1 kinase activity were determined using a homogeneous time-resolved fluorescence (HTRF) assay. The experimental process was as follows: • 1. The kinase reaction was carried out in a 384-well plate. 15 nM CDK2/cyclin E1 kinase (Carna), 1 µM ATP, and 1 µM biotin-labeled substrate protein ATF2-biotin (Cisbio) were incubated at room temperature for 90 min in a buffer system composed of 10 mM MgCl2, 1 mM MnCl2, 1 mM DTT, and basal kinase buffer (Cisbio). • 2. The detection solution (Cisbio, containing reagents that specifically recognize phosphorylated ATF2 and ATF2-biotin proteins, respectively) was added. The plate was then sealed with a film (to protect from light and volatilization) and incubated at 25°C for 60 min. • 3. The plate was transferred to an Envision plate reader to detect fluorescence resonance energy transfer (FRET) signals. (The 665/615 ratio was calculated by reading the emission at 665 nm and 615 nM, respectively.) • 4. The IC50 values were determined by analyzing the inhibition at varying compound concentrations using Model 205 in the XLfit software.

For a further assay, the target named is T2, CDK4/cyclin D3 (Homo sapiens, UniProt P11802).
T2 construct: purchased Carna
T2 sequence (P11802 whole entry): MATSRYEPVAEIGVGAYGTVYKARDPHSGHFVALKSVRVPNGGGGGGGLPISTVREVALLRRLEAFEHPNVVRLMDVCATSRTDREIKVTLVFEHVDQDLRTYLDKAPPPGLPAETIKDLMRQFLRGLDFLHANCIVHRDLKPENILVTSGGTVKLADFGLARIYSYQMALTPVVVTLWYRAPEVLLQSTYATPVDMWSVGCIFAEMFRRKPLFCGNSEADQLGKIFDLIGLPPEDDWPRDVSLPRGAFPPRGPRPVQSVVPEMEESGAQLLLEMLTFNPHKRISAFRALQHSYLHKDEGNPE
T2 sequence (P30281 whole entry partner): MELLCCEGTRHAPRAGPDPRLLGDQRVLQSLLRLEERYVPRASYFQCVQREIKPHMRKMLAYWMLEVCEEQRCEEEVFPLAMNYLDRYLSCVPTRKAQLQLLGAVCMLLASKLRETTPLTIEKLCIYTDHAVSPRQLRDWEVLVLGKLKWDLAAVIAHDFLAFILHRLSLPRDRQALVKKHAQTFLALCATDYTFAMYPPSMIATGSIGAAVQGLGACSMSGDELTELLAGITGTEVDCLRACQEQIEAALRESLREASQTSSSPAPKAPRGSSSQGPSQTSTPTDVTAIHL
The experiment in a line: In vitro biochemical kinase activity assay for CDK4/cyclin D3 (HTRF). The essentials:
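HTRF kinase reaction: 4.9 nM CDK4/cyclin D3, 1 mM (or 80 µM) ATP and 0.3 µM Rb-biotin substrate, 90 min at 30°C in buffer with 50 mM MgCl2 and 1 mM DTT.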
A general note: TR-FRET usually uses a lanthanide donor and a delayed reading to cut background.

A further assay addresses T3, CDK6/cyclin D3 (Homo sapiens, UniProt Q00534).
T3 construct: purchased Carna
The experiment in a line: In vitro biochemical kinase activity assay for CDK6/cyclin D3 (HTRF). The method in brief:
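HTRF assay: 0.02 nM CDK6/cyclin D3 incubated with 1 mM (or 100 µM) ATP and 0.3 µM Rb-biotin substrate at 30°C for 60 min in kinase buffer with 5 mM MgCl2 and 1 mM DTT.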

The mark [1] stands for this setting: unmarked data: 80 µM ATP in Step 1.
The mark [2] stands for this setting: unmarked data: 100 µM ATP in Step 1.
[3] abbreviates: data marked with *: 1 mM ATP in Step 1.

T3 sequence (Q00534 whole entry): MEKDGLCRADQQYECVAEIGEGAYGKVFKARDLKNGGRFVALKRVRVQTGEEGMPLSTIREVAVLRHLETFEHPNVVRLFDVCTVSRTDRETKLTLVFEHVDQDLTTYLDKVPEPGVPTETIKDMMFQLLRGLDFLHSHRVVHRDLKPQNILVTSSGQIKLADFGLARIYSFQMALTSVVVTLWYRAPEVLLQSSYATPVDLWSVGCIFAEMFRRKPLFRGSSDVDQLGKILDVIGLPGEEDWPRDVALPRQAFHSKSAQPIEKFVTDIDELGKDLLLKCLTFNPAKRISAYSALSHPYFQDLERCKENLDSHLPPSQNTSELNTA
T3 sequence (P30281 whole entry partner): as the sequence (P30281 whole entry partner) above

Regarding `CC(=O)c1ncc(C#Cc2nc(N[C@@H]3CCOC[C@H]3O)ncc2Cl)n1C(C)C` [Example 1, 1-(5-((5-chloro-2-(((3S,4R)-3-hydroxytetrahydro-2H-pyran-4-yl)amino)pyrimidin-4-yl)ethynyl)-1-isopropyl-1H-imidazol-2-yl)ethan-1-one], the IC50 against CDK2/cyclin E1 was determined as 3630 nM; against CDK4/cyclin D3 (setting [1]) it was 6.2 nM; on CDK6/cyclin D3 (setting [2]) it was 24.2 nM.

As for `CC(C)n1c(C#Cc2nc(N[C@@H]3CCOC[C@H]3O)ncc2Cl)cnc1C(C)(C)O` [Example 2, (3S,4R)-4-((5-chloro-4-((2-(2-hydroxypropan-2-yl)-1-isopropyl-1H-imidazol-5-yl)ethynyl)pyrimidin-2-yl)amino)tetrahydro-2H-pyran-3-ol], the IC50 against CDK2/cyclin E1 was determined as 1320 nM.

On to `CC(C)n1c(C#Cc2nc(N[C@H]3CCOC[C@@H]3O)ncc2Cl)cnc1C(C)(C)O` [Example 3, (3R,4S)-4-((5-chloro-4-((2-(2-hydroxypropan-2-yl)-1-isopropyl-1H-imidazol-5-yl)ethynyl)pyrimidin-2-yl)amino)tetrahydro-2H-pyran-3-ol], for which half-maximal inhibition against CDK2/cyclin E1 (IC50) was put at 467 nM.

With `CC(C)n1c(C#Cc2nc(N[C@@H]3CCN(S(C)(=O)=O)C[C@H]3O)ncc2Cl)cnc1C(C)(C)O` [Example 24, (3R,4R)-4-((5-chloro-4-((2-(2-hydroxypropan-2-yl)-1-isopropyl-1H-imidazol-5-yl)ethynyl)pyrimidin-2-yl)amino)-1-(methanesulfonyl)piperidin-3-ol], the results for the IC50 against CDK2/cyclin E1, on CDK4/cyclin D3 (setting [1]) and against CDK6/cyclin D3 (setting [2]) were 236 nM, 0.56 nM and 3.04 nM, respectively.

Turning to `CC(C)n1c(C#Cc2nc(N[C@@H]3CCOC[C@H]3O)ncc2Cl)cnc1[C@H](C)O` [Example 30, (3 S,4R)-4-((5-chloro-4-((2-((S)-1-hydroxyethyl)-1-isopropyl-1H-imidazol-5-yl)ethynyl)pyrimidin-2-yl)amino)tetrahydro-2H-pyran-3-ol], the values for the IC50 against CDK2/cyclin E1, against CDK4/cyclin D3 (setting [1]) and against CDK6/cyclin D3 (setting [2]) were 125 nM, 1.14 nM and 11.4 nM, respectively.

Regarding `CC(C)n1c(C#Cc2nc(N[C@@H]3CCOC[C@H]3O)ncc2Cl)cnc1[C@@H](C)O` [Example 31, (3 S,4R)-4-((5-chloro-4-((2-((R)-1-hydroxyethyl)-1-isopropyl-1H-imidazol-5-yl)ethynyl)pyrimidin-2-yl)amino)tetrahydro-2H-pyran-3-ol], the IC50 against CDK2/cyclin E1 was found to be 590 nM; against CDK4/cyclin D3 (setting [1]), 7.85 nM; on CDK6/cyclin D3 (setting [2]), 47.1 nM.

With `CNCc1ncc(C#Cc2nc(N[C@@H]3CCOC[C@H]3O)ncc2Cl)n1C(C)C` [Example 35, (3 S,4R)-4-((5-chloro-4-((1-isopropyl-2-((methylamino)methyl)-1H-imidazol-5-yl)ethynyl)pyrimidin-2-yl)amino)tetrahydro-2H-pyran-3-ol], the half-maximal inhibitory concentration (IC50) on CDK2/cyclin E1 was determined as 539 nM; at CDK4/cyclin D3 (setting [1]), 19 nM; against CDK6/cyclin D3 (setting [2]) it was 131 nM.

Take `CC(C)NCc1ncc(C#Cc2nc(N[C@@H]3CCOC[C@H]3O)ncc2Cl)n1C(C)C` [Example 40, (3 S,4R)-4-((5-chloro-4-((1-isopropyl-2-((isopropylamino)methyl)-1H-imidazol-5-yl)ethynyl)pyrimidin-2-yl)amino)tetrahydro-2H-pyran-3-ol]: the IC50 turned out to be 1970 nM on CDK2/cyclin E1, 30.8 nM at CDK4/cyclin D3 (setting [1]) and 299 nM against CDK6/cyclin D3 (setting [2]).

With `CC(C)n1c(C#Cc2nc(N[C@@H]3CCOC[C@H]3O)ncc2Cl)cnc1C(C)(O)C1CC1` (stereo partly drawn) [Example 125, (3 S,4R)-4-((5-chloro-4-((2-(1-cyclopropyl-1-hydroxyethyl)-1-isopropyl-1H-imidazol-5-yl)ethynyl)pyrimidin-2-yl)amino)tetrahydro-2H-pyran-3-ol], the IC50 against CDK4/cyclin D3 (setting [3]) turned out to be 11.6 nM; against CDK6/cyclin D3 (setting [3]) it was 65.4 nM.

Regarding `CC(C)n1c(C#Cc2nc(N[C@@H]3CCOC[C@H]3O)ncc2Cl)cnc1N1CCOC1=O` [Example 126, 3-(5-((5-chloro-2-(((3S,4R)-3-hydroxytetrahydro-2H-pyran-4-yl)amino)pyrimidin-4-yl)ethynyl)-1-isopropyl-1H-imidazol-2-yl)oxazolidin-2-one], the values for the IC50 against CDK4/cyclin D3 (setting [3]) and on CDK6/cyclin D3 (setting [3]) were 17 nM and 75.8 nM, respectively.

For the compound `Cn1ncc(C#Cc2nc(N[C@@H]3CCOC[C@H]3O)ncc2Cl)c1C(C)(C)C` [Example 127, (3 S,4R)-4-((4-((5-(tert-butyl)-1-methyl-1H-pyrazol-4-yl)ethynyl)-5-chloropyrimidin-2-yl)amino)tetrahydro-2H-pyran-3-ol], the IC50 on CDK4/cyclin D3 (setting [3]) was determined as 137 nM; on CDK6/cyclin D3 (setting [3]) it was 455 nM.

Regarding `CC(C)c1c(C#Cc2nc(N[C@@H]3CCOC[C@H]3O)ncc2Cl)cnn1CC(F)F` [Example 128, (3 S,4R)-4-((5-chloro-4-((1-(2,2-difluoroethyl)-5-isopropyl-1H-pyrazol-4-yl)ethynyl)pyrimidin-2-yl)amino)tetrahydro-2H-pyran-3-ol], the results for the concentration for half-maximal inhibition (IC50) against CDK4/cyclin D3 (setting [3]) and at CDK6/cyclin D3 (setting [3]) were 53.3 nM and 254 nM, respectively.

In the case of `CC(C)n1c(C#Cc2nc(N[C@@H]3CCN(S(C)(=O)=O)C[C@H]3O)ncc2Cl)cnc1CN1CCC[C@H](O)C1` [Example 129, (3R,4R)-4-((5-chloro-4-((2-(((S)-3-hydroxypiperidin-1-yl)methyl)-1-isopropyl-1H-imidazol-5-yl)ethynyl)pyrimidin-2-yl)amino)-1-(methanesulfonyl)piperidin-3-ol], the IC50 on CDK4/cyclin D3 (setting [3]) is 1.48 nM; against CDK6/cyclin D3 (setting [3]) it was 21 nM.

As for `CN(C)c1c(C#Cc2nc(N[C@@H]3CCOC[C@H]3O)ncc2Cl)cnn1C` [Example 130, (3 S,4R)-4-((5-chloro-4-((5-(dimethylamino)-1-methyl-1H-pyrazol-4-yl)ethynyl)pyrimidin-2-yl)amino)tetrahydro-2H-pyran-3-ol], the IC50 against CDK4/cyclin D3 (setting [3]) amounted to 23.5 nM; against CDK6/cyclin D3 (setting [3]), 222 nM.

On to `CC(C)n1c(C#Cc2nc(N[C@@H]3CCOC[C@H]3O)ncc2Cl)cnc1CC1(N)CCCC1` [Example 131, (3S,4R)-4-((4-((2-((1-aminocyclopentyl)methyl)-1-isopropyl-1H-imidazol-5-yl)ethynyl)-5-chloropyrimidin-2-yl)amino)tetrahydro-2H-pyran-3-ol], for which the half-inhibitory concentration (IC50) turned out to be 23.2 nM against CDK4/cyclin D3 (setting [3]) and 684 nM on CDK6/cyclin D3 (setting [3]).

In the case of `CC1CCOc2ncc(C#Cc3nc(N[C@@H]4CCOC[C@H]4O)ncc3Cl)n21` (stereo partly drawn) [Example 132, (3 S,4R)-4-((5-chloro-4-((5-methyl-6,7-dihydro-5H-imidazo[2,1-o][1,3]oxazin-3-yl)ethynyl)pyrimidin-2-yl)amino)tetrahydro-2H-pyran-3-ol], the IC50 came out at 93.7 nM against CDK4/cyclin D3 (setting [3]) and 243 nM on CDK6/cyclin D3 (setting [3]).

As for `CC1CCN(C)c2ncc(C#Cc3nc(N[C@@H]4CCOC[C@H]4O)ncc3Cl)n21` (stereo partly drawn) [Example 135, (3 S,4R)-4-((5-chloro-4-((5,8-dimethyl-5,6,7,8-tetrahydroimidazo[1,2-a]pyrimidin-3-yl)ethynyl)pyrimidin-2-yl)amino)tetrahydro-2H-pyran-3-ol], the figures for the IC50 at CDK4/cyclin D3 (setting [3]) and against CDK6/cyclin D3 (setting [3]) were 177 nM and 275 nM, respectively.

In the case of `CC(C)(C)n1cncc1C#Cc1nc(N[C@@H]2CCOC[C@H]2O)ncc1Cl` [Example 136, (3S,4R)-4-((4-((1-(tert-butyl)-1H-imidazol-5-yl)ethynyl)-5-chloropyrimidin-2-yl)amino)tetrahydro-2H-pyran-3-ol], the results for the IC50 against CDK4/cyclin D3 (setting [1]) and against CDK6/cyclin D3 (setting [2]) were 10.3 nM and 39.3 nM, respectively.

`[2H]C([2H])(c1ncc(C#Cc2nc(Nc3ccc(CN4CCN(CC)CC4)cn3)ncc2Cl)n1C(C)C)N1CCC[C@H](O)C1` [Example 137, (S)-1-((5-((5-chloro-2-((5-((4-ethylpiperazin-1-yl)methyl)pyridin-2-yl)amino)pyrimidin-4-yl)ethynyl)-1-isopropyl-1H-imidazol-2-yl)methyl-d2)piperidin-3-ol]: the IC50 against CDK4/cyclin D3 (setting [3]) was determined as 3.17 nM; on CDK6/cyclin D3 (setting [3]) it was 53 nM.

As to `[2H]C(C)(O)c1ncc(C#Cc2nc(N[C@@H]3CCOC[C@H]3O)ncc2Cl)n1C(C)C` (stereo partly drawn) [Example 138, (3 S,4R)-4-((S-chloro-4-((2-(1-hydroxyethyl-1-d)-1-isopropyl-1H-imidazol-5-yl)ethynyl)pyrimidin-2-yl)amino)tetrahydro-2H-pyran-3-ol], the half-maximal inhibitory concentration (IC50) came to 5.92 nM on CDK4/cyclin D3 (setting [3]) and 38.4 nM against CDK6/cyclin D3 (setting [3]).

With “(3 S,4R)-4-((5-chloro-4-((1-(1, 1-difluoropropan-2-yl)-1H-imidazol-5-yl)ethynyl)pyrimidin-2-yl)amino)tetrahydro-2H-pyran-3-ol [Example 134]”, the IC50 amounted to 36.1 nM against CDK4/cyclin D3 (setting [3]) and 230 nM against CDK6/cyclin D3 (setting [3]).

With “(3S,4R)-4-((5-chloro-4-((1-(1, 1-difluoropropan-2-yl)-2-(2-hydroxypropan-2-yl)-1H-imidazol-5-yl)ethynyl)pyrimidin-2-yl)amino)tetrahydro-2H-pyran-3-ol [Example 133]”, the IC50 worked out at 260 nM at CDK4/cyclin D3 (setting [3]) and 1140 nM against CDK6/cyclin D3 (setting [3]).

Usually IC50 stands for the concentration that gives 50% inhibition. A high value points to lower potency.
